Experimental findings from patent publication US20220220128A1, “HETEROCYCLIC COMPOUNDS AS KINASE INHIBITORS, COMPOSITIONS COMPRISING THE HETEROCYCLIC COMPOUND, AND METHODS OF USE THEREOF” (JS Innopharm (Shanghai) Ltd, priority 2019, published 2022) are described below.

pIC50: −log10 of the molar value. A value given as a limit tells only on which side of the number the result lay.

One experiment has as its target T1, BAF3-KIF5B-RET cells (Homo sapiens, UniProt P07949).
T1 construct: fused on or other part: P33176 (Kinesin-1 heavy chain)
The experiment can be described thus: BAF3-KIF5B-RET Cell proliferation assay (CellTiter-Glo, 72 hours). The format is cell-based. The settings on record: growth inhibition, read-out: BA/F3-KIF5B-RET Cellular activity. Put shortly:
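Cells seeded at 2,000/well in RPMI-1640 with 10% FBS and left 24 h at 37 °C, then exposed 72 h to nine compound levels (final 1 μM down to 0.00015 μM, 0.1% DMSO). CellTiter-Glo luminescence gave viability versus DMSO wells, from which IC50 was fitted.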
(In ATP-based viability assays light output follows the ATP content of the culture.)

A further experiment addresses T2, human KDR kinase (Homo sapiens, UniProt P35968).
T2 construct: purchased Carna 08-191
Description: KDR Kinase Assay (LanthaScreen TR-FRET enzymatic assay). Format: biochemical. The settings on record: 1.2 nM KDR, 92 μM ATP. The gist of the method: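 Recombinant human KDR (1.2 nM) preincubated 15 min at room temperature with compound, then reacted with 3 μM FAM-P22 peptide and 92 μM ATP in 50 mM HEPES pH 7.5 for 1 h at 28° C. EDTA stop, then TR-FRET acceptor/donor ratio read; percent of 1% DMSO control fitted sigmoidally for IC50.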

Another experiment addresses T3, human RET kinase (Homo sapiens, UniProt P07949).
T3 construct: purchased Carna 08-159
Description: RET Kinase Assay (LanthaScreen TR-FRET enzymatic assay). Format: biochemical. The settings on record: 7 nM RET, 23 μM ATP. Put shortly:
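Human RET (7 nM) preincubated 15 min with compound in 50 mM HEPES pH 7.5, 0.0015% Brij-35, then reacted with 3 μM FAM-P2 peptide and 23 μM ATP for 1 h at 28° C.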
(Time-resolved FRET reads energy transfer from a long-lived donor to a nearby acceptor.)

The test system of another experiment is TT cells. Description: TT Cell Proliferation Assay (WST-8, 8 days). Format: cell-based. The settings on record: Homo sapiens, TT, 192 h, growth inhibition in TT cells, read-out: TT Cellular Activity. Put shortly: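 TT cells, 6,000/well in RPMI-1640 with 10% FBS, attached 24 h, then exposed to compound at 5 μM down to 0.0005 μM final (0.5% DMSO) for 8 days at 37 °C. WST-8 added for 5 h, absorbance at 450 nm. IC50 calculated from the dilution series.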
A general note: Formazan colour is commonly taken as a measure of viable cells.

T1 sequence (P07949 whole entry, change not shown, the tested form may be a part): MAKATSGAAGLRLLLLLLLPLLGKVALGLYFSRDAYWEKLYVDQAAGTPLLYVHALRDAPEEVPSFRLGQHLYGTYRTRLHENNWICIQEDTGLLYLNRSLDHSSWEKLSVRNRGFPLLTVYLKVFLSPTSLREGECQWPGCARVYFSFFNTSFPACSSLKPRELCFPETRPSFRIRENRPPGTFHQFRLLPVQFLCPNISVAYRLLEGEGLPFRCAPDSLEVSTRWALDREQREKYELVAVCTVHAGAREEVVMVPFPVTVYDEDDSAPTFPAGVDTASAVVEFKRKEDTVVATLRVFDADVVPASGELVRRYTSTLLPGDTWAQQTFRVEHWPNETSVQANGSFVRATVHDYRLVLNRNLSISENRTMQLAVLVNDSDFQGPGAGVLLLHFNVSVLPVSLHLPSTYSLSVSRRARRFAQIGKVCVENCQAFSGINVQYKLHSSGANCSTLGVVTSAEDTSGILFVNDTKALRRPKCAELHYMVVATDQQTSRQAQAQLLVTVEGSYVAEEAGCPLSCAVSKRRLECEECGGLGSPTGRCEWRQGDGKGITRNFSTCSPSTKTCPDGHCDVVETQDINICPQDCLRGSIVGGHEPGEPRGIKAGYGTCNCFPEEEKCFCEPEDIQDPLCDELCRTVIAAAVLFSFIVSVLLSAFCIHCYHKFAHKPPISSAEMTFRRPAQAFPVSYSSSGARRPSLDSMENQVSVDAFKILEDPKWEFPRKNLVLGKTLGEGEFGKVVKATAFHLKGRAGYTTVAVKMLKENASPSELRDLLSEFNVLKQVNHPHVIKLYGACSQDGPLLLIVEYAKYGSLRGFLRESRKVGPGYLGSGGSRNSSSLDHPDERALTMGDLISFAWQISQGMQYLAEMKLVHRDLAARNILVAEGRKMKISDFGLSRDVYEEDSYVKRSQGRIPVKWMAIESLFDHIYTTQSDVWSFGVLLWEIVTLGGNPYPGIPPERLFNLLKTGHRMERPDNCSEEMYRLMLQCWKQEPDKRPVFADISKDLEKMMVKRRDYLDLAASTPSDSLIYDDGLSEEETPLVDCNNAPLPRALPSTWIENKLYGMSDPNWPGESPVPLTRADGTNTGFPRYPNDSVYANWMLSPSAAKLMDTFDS
T3 sequence (P07949 29-1114): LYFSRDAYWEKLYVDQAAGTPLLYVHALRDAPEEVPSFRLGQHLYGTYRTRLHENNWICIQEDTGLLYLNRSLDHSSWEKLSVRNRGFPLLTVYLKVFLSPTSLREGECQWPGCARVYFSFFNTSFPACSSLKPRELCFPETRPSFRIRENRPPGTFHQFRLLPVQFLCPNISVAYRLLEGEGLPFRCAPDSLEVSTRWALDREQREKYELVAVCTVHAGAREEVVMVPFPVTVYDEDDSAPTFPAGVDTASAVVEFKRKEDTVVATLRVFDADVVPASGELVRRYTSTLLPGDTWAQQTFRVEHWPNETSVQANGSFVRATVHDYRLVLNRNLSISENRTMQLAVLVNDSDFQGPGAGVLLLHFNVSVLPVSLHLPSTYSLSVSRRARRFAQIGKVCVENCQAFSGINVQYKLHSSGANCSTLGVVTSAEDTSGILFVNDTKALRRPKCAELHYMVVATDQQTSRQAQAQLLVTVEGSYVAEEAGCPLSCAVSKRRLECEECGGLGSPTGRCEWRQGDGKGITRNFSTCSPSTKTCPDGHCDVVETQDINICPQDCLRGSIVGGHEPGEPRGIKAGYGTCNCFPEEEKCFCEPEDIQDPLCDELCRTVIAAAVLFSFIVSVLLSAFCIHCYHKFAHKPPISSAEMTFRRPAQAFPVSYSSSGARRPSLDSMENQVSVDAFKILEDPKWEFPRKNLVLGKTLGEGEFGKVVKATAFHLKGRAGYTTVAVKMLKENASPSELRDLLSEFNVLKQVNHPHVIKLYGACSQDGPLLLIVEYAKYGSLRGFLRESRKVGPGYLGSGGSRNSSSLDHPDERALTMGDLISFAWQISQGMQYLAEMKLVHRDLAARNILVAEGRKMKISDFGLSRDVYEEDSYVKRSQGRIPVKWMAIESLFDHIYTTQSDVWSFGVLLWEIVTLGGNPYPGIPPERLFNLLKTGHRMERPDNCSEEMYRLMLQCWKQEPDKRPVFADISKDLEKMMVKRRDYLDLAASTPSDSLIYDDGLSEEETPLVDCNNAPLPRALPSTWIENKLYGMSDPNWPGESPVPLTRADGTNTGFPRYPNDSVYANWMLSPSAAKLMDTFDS
T2 sequence (P35968 20-1356): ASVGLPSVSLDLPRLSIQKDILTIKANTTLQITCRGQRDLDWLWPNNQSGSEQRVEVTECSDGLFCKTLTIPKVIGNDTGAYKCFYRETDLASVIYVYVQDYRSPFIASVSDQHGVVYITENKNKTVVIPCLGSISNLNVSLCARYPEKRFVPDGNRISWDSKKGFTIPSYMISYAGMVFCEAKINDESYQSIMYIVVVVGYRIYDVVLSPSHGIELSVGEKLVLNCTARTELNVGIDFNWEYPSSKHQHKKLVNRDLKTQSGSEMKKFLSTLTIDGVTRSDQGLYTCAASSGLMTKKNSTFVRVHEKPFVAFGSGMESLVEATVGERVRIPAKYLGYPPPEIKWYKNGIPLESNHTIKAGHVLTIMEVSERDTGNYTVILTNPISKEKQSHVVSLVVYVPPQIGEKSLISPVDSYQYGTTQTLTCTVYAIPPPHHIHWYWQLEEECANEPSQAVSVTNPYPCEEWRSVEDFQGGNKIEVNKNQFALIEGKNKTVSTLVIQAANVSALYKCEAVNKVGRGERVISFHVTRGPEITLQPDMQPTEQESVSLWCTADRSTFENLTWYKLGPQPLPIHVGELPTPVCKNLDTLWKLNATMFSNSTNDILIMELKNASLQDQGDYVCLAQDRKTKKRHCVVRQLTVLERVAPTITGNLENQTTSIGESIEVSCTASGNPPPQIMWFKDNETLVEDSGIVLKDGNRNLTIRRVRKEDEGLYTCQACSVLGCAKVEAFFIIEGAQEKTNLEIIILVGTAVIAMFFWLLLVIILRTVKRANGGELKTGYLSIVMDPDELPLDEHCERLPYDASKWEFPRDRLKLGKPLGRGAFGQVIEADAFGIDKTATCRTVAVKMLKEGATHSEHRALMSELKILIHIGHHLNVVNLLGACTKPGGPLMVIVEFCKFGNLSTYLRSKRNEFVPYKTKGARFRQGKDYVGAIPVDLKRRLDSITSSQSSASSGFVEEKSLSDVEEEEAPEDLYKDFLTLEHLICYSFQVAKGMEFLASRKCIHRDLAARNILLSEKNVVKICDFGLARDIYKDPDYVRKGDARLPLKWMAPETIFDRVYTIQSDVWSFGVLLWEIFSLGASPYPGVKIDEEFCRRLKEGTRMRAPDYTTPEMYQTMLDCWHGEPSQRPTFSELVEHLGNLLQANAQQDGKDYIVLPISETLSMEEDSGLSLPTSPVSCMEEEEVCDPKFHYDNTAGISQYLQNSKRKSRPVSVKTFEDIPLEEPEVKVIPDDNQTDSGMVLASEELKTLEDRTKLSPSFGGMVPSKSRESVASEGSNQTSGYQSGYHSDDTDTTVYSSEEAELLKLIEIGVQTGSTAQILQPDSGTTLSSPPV

`Cn1cc(-c2cc(-c3ccc(N4C[C@@H]5C[C@@](C)(NC(=O)c6ncccc6C#N)C[C@@H]5C4)nc3)c3c(C#N)cnn3c2)cn1` [Example 121, 3-cyano-N-((3aR,5s,6aS)-2-(5-(3-cyano-6-(1-methyl-1H-pyrazol-4-yl)pyrazolo[1,5-a]pyridin-4-yl)pyridin-2-yl)-5-methyloctahydrocyclopenta[c]pyrrol-5-yl)picolinamide]: the GI50 at BAF3-KIF5B-RET cells was no more than 10 nM. For the same molecule, the pIC50 at human KDR kinase, at human RET kinase and in the experiment on TT cells was no less than 8.00 in each case.
Take `Cn1ccc(-c2cc(-c3cnc(N4C[C@@H]5C[C@@](C)(NC(=O)c6ncccc6Cl)C[C@@H]5C4)cn3)c3c(C#N)cnn3c2)n1` [Example 70, 3-chloro-N-((3aR,5s,6aS)-2-(5-(3-cyano-6-(1-methyl-1H-pyrazol-3-yl)pyrazolo[1,5-a]pyridin-4-yl)pyrazin-2-yl)-5-methyloctahydrocyclopenta[c]pyrrol-5-yl)picolinamide]: the GI50 at BAF3-KIF5B-RET cells was no more than 10 nM. Moreover, the values for the pIC50 at human KDR kinase, on human RET kinase and in the experiment on TT cells were 7.30 to 8.00, no less than 8.00 and 7.30 to 8.00, respectively.
As to `CC(C)(O)COc1cc(-c2ccc(N3C[C@@H]4C[C@@](C)(NC(=O)c5ncccc5Cl)C[C@@H]4C3)nc2)c2c(C#N)cnn2c1` [Example 54, 3-chloro-N-((3aR,5s,6aS)-2-(5-(3-cyano-6-(2-hydroxy-2-methylpropoxy)pyrazolo[1,5-a]pyridin-4-yl)pyridin-2-yl)-5-methyloctahydro-cyclopenta[c]pyrrol-5-yl)picolinamide], the GI50 on BAF3-KIF5B-RET cells lay within 10 to 50 nM. For the same molecule, the values for the pIC50 on human KDR kinase, against human RET kinase and in the experiment on TT cells were less than 7.00, no less than 8.00 and 7.30 to 8.00, respectively.
On to `Cn1cc(-c2cc(-c3cnc(N4C[C@@H]5C[C@@](C)(NC(=O)c6ncccc6Cl)C[C@@H]5C4)cn3)c3c(C#N)cnn3c2)cn1` [Example 61], for which, on BAF3-KIF5B-RET cells, the GI50 was no more than 10 nM. The results for the pIC50 at human KDR kinase, against human RET kinase and with TT cells were 7.30 to 8.00, no less than 8.00 and no less than 8.00, respectively.
With `Cn1cc(-c2cc(-c3ccc(N4C[C@@H]5[C@H](C4)[C@H]5NC(=O)c4ncccc4Cl)nc3)c3c(C#N)cnn3c2)cn1` [Example 20, 3-chloro-N-((1R,5S,6s)-3-(5-(3-cyano-6-(1-methyl-1H-pyrazol-4-yl)pyrazolo[1,5-a]pyridin-4-yl)pyridin-2-yl)-3-azabicyclo[3.1.0]hexan-6-yl)picolinamide], the GI50 at BAF3-KIF5B-RET cells fell in the range of 10 to 50 nM. The pIC50 is 7.30 to 8.00 against human KDR kinase, no less than 8.00 against human RET kinase and 7.30 to 8.00 in the experiment on TT cells.
`CC(C)C(O)C(=O)NC[C@@H]1[C@H]2CN(c3ccc(-c4cc(-c5cnn(C)c5)cn5ncc(C#N)c45)cn3)C[C@@H]12` (stereo partly drawn) [Example 75, N-(((1R,5S,6s)-3-(5-(3-cyano-6-(1-methyl-1H-pyrazol-4-yl)pyrazolo[1,5-a]pyridin-4-yl)pyridin-2-yl)-3-azabicyclo[3.1.0]hexan-6-yl)methyl)-2-hydroxy-3-methylbutanamide]: the GI50 at BAF3-KIF5B-RET cells is no more than 10 nM. Also, the values for the pIC50 on human KDR kinase, at human RET kinase and in the experiment on TT cells were 7.30 to 8.00, no less than 8.00 and no less than 8.00, respectively.
As to `Cn1cc(-c2cc(-c3ccc(N4C[C@H]5CN(C(=O)c6c(F)cccc6Cl)C[C@H]5C4)nc3)c3c(C#N)cnn3c2)cn1` [Example 5, 4-(6-((3aR,6aS)-5-(2-chloro-6-fluorobenzoyl)hexahydropyrrolo[3,4-c]pyrrol-2(1H)-yl)pyridin-3-yl)-6-(1-methyl-1H-pyrazol-4-yl)pyrazolo[1,5-a]pyridine-3-carbonitrile], the GI50 on BAF3-KIF5B-RET cells was no more than 10 nM. In addition, the pIC50 against human KDR kinase, against human RET kinase and in the experiment with TT cells was no less than 8.00 each time.
As to `CC(C)(O)COc1cc(-c2ccc(N3C[C@@H]4C[C@@](C)(NC(=O)c5c(F)cccc5Cl)C[C@@H]4C3)nc2)c2c(C#N)cnn2c1` [Example 96, 2-chloro-N-((3aR,5s,6aS)-2-(5-(3-cyano-6-(2-hydroxy-2-methylpropoxy)pyrazolo[1,5-a]pyridin-4-yl)pyridin-2-yl)-5-methyloctahydrocyclopenta[c]pyrrol-5-yl)-6-fluorobenzamide], the GI50 on BAF3-KIF5B-RET cells was no more than 10 nM. For the same molecule, the pIC50 against human KDR kinase is 7.30 to 8.00; on human RET kinase, no less than 8.00; in the experiment with TT cells, no less than 8.00.
As for `CC(C)(O)COc1cc(-c2ccc(N3C4CC5CC3CC(C(=O)Nc3ncccc3Cl)(C5)C4)nc2)c2c(C#N)cnn2c1` [Example 98, (1R,3 S,5s,7s)-N-(3-chloropyridin-2-yl)-2-(5-(3-cyano-6-(2-hydroxy-2-methylpropoxy)pyrazolo[1,5-a]pyridin-4-yl)pyridin-2-yl)-2-azaadamantane-5-carboxamide], at BAF3-KIF5B-RET cells, the GI50 was no more than 10 nM. Besides, the pIC50 at human KDR kinase was 7.30 to 8.00; on human RET kinase it was no less than 8.00; in the experiment on TT cells it was no less than 8.00.
For the molecule `Cn1cc(-c2cc(-c3ccc(N4C5CC6CC4CC(NC(=O)OC(C)(C)C)(C6)C5)nc3)c3c(C#N)cnn3c2)cn1` [Example 180], the GI50 on BAF3-KIF5B-RET cells was no more than 10 nM. The pIC50 against human KDR kinase, on human RET kinase and with TT cells was no less than 8.00 throughout.
On to `CC(C)C(=O)NC12CC3CC(C1)N(c1ccc(-c4cc(OCC(C)(C)O)cn5ncc(C#N)c45)cn1)C(C3)C2` [Example 132, N-((1R,3S,5s,7s)-2-(5-(3-cyano-6-(2-hydroxy-2-methylpropoxy)pyrazolo[1,5-a]pyridin-4-yl)pyridin-2-yl)-2-azaadamantan-5-yl)isobutyramide], for which the GI50 on BAF3-KIF5B-RET cells was in the range of 10 to 50 nM. The pIC50 against human KDR kinase was less than 7.00; against human RET kinase, no less than 8.00; in the experiment with TT cells it was no less than 8.00.
Turning to `Cn1cc(-c2cc(-c3ccc(N4C5CC6CC4CC(C(=O)Nc4ncccc4Cl)(C6)C5)nc3)c3c(C#N)cnn3c2)cn1` [Example 90, (1R,3S,5s,7s)-N-(3-chloropyridin-2-yl)-2-(5-(3-cyano-6-(1-methyl-1H-pyrazol-4-yl)pyrazolo[1,5-a]pyridin-4-yl)pyridin-2-yl)-2-azaadamantane-5-carboxamide], the GI50 on BAF3-KIF5B-RET cells is no more than 10 nM. The pIC50 at human KDR kinase, at human RET kinase and in the experiment with TT cells was no less than 8.00 in each case.
In the case of `CC(C)(O)COc1cc(-c2ccc(N3C[C@H]4CN(C(=O)c5c(F)cccc5Cl)C[C@H]4C3)nc2)c2c(C#N)cnn2c1` [Example 9, 4-(6-((3aR,6aS)-5-(2-chloro-6-fluorobenzoyl)hexahydropyrrolo[3,4-c]pyrrol-2(1H)-yl)pyridin-3-yl)-6-(2-hydroxy-2-methylpropoxy)pyrazolo[1,5-a]pyridine-3-carbonitrile], the GI50 at BAF3-KIF5B-RET cells was 10 to 50 nM. The pIC50 against human KDR kinase is 7.00 to 7.30; at human RET kinase, no less than 8.00; in the experiment with TT cells, no less than 8.00.
